Source: US20050014690A1, “Styryl acrylonitrile compounds and their use to promote myelopoiesis” (priority 2001, published 2005)
Entries after “also recorded” stand apart in the source; their conditions may differ.

Legend:
normal bone marrow cells [1] = experiment: CFU-GEMM colony assay, normal bone marrow, compound present for 14 days; type: cell-based, human; settings: for toxicity to normal bone marrow cells: until concentrations of 20 μM or greater; for number of CFU-GM or CFU-C colonies: in vitro assays of human bone marrow cell growth, continual exposure for 14 days, about 1-20 μM
Experimental: Treatment of normal bone marrow in culture with CR4. The CFU-GEMM assay was performed according to Fauser and Messner (Blood, 52(6) 1243-8,1978) and Messner and Fausser (Blut 41(5) 327-33, 1980) with some variations. In brief, heparinized bone marrow cells were layered over Percoll (1.077 gm/ml) and centrifuged at 400 g at 4° C. for 10 minutes to remove neutrophils and RBCs. The fractionated BM cells at 2×10^5 cells/ml were cultured in IMDM containing 0.9% (vol/vol) methylcellulose supplemented with 30% FCS or normal human plasma, a cocktail of cytokines containing G-CSF (10 ng/ml), IL-3 (40 U/ml), MGF (50 ng/ml), Erythropoietin (2u/ml) or TPO (10 ng/ml) and 5×10^−5M μ-2-mercaptoethanol. CR4 was added to the cells in concentrations indicated in FIG. 1 and the culture mixture was plated in 1 ml volumes into 35 mm petri dishes and incubated at 37° C., 5% CO2 in a humidified atmosphere. All cultures were evaluated at 14 days for the number of BFU-E colonies (defined as aggregates of more than 500 hemaglobinized cells or, 3 or more erythroid subcolonies), CFU-C colonies (defined as granulocyte or monocyte-macrophage cells or both), and CFU-GEMM colonies (a mixed population comprising of all elements). All control samples in this and other examples were treated with the matching concentration of the solvent (DMSO) for the compounds in the same medium or in the case of Example 21, PBS, as indicated. CFU-C stimulation with CR4 dose response. Bone marrow cells were prepared as in Example 15. CR4 was added to the cells at 10 or 20 μM. The culture mixture was plated in 1 ml volumes into 35 mm petri dishes and incubated at 37° C., 5% CO2 in a humidified atmosphere. All cultures were evaluated at 14 days for the number of CFU-C colonies (defined as granulocyte or monocyte-macrophage cells or both). […] Stimulation of CFU-C colony formation by CR11. Bone marrow cells were prepared as in Example 15. CR11 was added to the cells at 10 or 20 μM. The culture mixture was plated in 1 ml volumes into 35 mm petri dishes and incubated at 37° C., 5% […] in a humidified atmosphere. All cultures were evaluated at 14 days for the number of CFU-C colonies. […] CFU-C stimulation with CR19 dose response. Bone marrow cells were prepared as in Example 15. The culture mixture was plated in 1 ml volumes into 35 mm petri dishes and incubated at 37° C., 5% CO2 in a humidified atmosphere. All cultures were evaluated at 14 days for the number of BFU-E and CFU-C colonies.

[2] = test system: CD34+ multipotent stem cells; experiment: CFU-C colony formation from CD34+ selected stem cells; type: cell-based, human
normal bone marrow cells [3] = experiment: CFU-C colony formation after short high dose exposure (2.5-5 hours), wash-out, 14 day culture; type: cell-based, human
Experimental: Stimulation of CFU-C colony formation with high dose CR4 for 2.5 hours. Bone marrow cells were layered over Percoll and centrifuged at 400 g at 4° C. for 10 minutes to remove neutrophils and RBCs. The cells were resuspended at 1×10^6/ml in complete medium with or without 50 μM CR4. The cells were incubated with the compound for two and a half hours at 37° C., 5% CO2. At the end of this period the cells were thoroughly washed in medium to remove CR4 and then cultured at 2×10^5 cells/ml in IMDM containing 0.9% (vol/vol) methylcellulose supplemented with 30% FCS or normal human plasma, and a cocktail of cytokines containing G-CSF (10 ng/ml), IL-3 (40 U/ml,), MGF (50 ng/ml), Erythropoietin or TPO and 5×10^−5M μ-2-mercaptoethanol. The culture mixture was plated in 1 ml volumes into 35 mm petri dishes and incubated at 37° C., 5% CO2 in a humidified atmosphere. All cultures were evaluated at 14 days for the number of CFU-C colonies. […] Stimulation of CFU-C colony formation with high dose CR4 for 2.5 and 5 hours. Bone marrow cells were prepared and treated as in Example 19, except exposure times of 2.5 and 5 hours were evaluated. The culture mixture was plated in 1 ml volumes into 35 mm petri dishes and incubated at 37° C., 5% CO2 in a humidified atmosphere. All cultures were evaluated at 14 days for the number of CFU-GM colonies (defined as granulocyte or macrophage cells or both). […] Stimulation of CFU-C colony formation with high dose CR4—two independent bone marrow samples (A&B). Bone marrow cells were prepared and treated as in Example 19, except that CR4 concentrations of 25 and 50 μM were evaluated. The culture mixtures was plated in 1 ml volumes into 35 mm petri dishes and incubated at 37° C., 5% CO2 in a humidified atmosphere. All cultures were evaluated at 14 days for the number of CFU-C colonies.

mice [4] = experiment: Peripheral white blood cell count in mice; type: in vivo; settings: for white blood cells in the peripheral blood: SCI mouse model, similar kinetics to G-CSF treated mice; for white blood cell counts: mice injected daily, peripheral blood after 14 and 17 days, FIG. 9
Experimental: Promotion of peripheral white blood cell count by CR11. Mice were injected daily with CR11. 250 μl of 400 μM CR11 was injected in PBS. Controls were injected with matching concentrations of CR11 solvent (DMSO) in PBS, or recombinant human G-CSF. After 14 and 17 days blood peripheral blood samples were taken and white blood cell counts determined. Results from each group were averaged.

mice [5] = experiment: Granulocytes in the spleen of treated mice; type: in vivo; settings: for normal splenic granulocytes: daily injection, SCI mouse model; for non-specific damage to the animal: doses required to promote myelopoiesis, one month of continual administration
[6] = test system: normal bone marrow mononuclear cells; experiment: Long-term culture-initiating cell (LTC-IC) assay on stroma after pre-incubation; type: cell-based, human; settings: for myeloproliferation in long-term cultures: pre-incubated with 50 uM for 5 hours, FIG. 11
Excerpt: The long-term BM culture system provides the means to investigate the proliferation and differentiation properties of primitive hematopoietic cells. To assess the long-term effects of CR4 on early progenitor cells the long-term culture-initiating cell (LTC-IC) assay was set up utilizing stromal microenvironment. Briefly, to obtain stromal cells bone marrow mononuclear cells were suspended in long-term culture (LTC) media (MyeloCult Stem Cell Technologies Inc.) supplemented with 10^−6 mol/L hydrocortisone sodium succinate (HSS; Sigma Aldrich Canada Ltd., Mississauga, Ont.,Canada). Approximately 1×10^7 cells were plated into 25 cm^2 tissue culture flasks (Becton Dickinson Labware, Franklin Lakes, N.J., USA) and incubated for 3 days at […] in a humidified atmosphere with 5% CO2 followed by incubation at 33° C. Cultures were re-fed weekly by replacing half of the medium. Following stromal confluency (3-6 weeks) cells were trypsinized and irradiated (1,500 cGy) using a Cs source. Stromal cells were again replated in LTC media at a concentration of 0.5-1.0×10^6 cells per 35 mm culture dishes (Nunc-Gibco BRL, Gaithersburg, Md.). Subcultured stroma was incubated for 2-3 days (at greater than 70% confluency) prior to co-culturing with fresh non-adherent overlay of hematopoietic cells. Normal bone marrow mononuclear cells, purified by centrifugation on Percoll, at a concentration of 1×10^6 cells/ml were pre-incubated with 50 uM CR4 or the drug diluent alone for a period of 5 hours at 37° C. in media. Cells were then washed twice to remove the compound and plated at 2×10^5 cells/ml for the short-term CFU-GEMM clonogenic assay (as previously described) while the remainder of the non-adherent cells were co-cultured with normal stroma (as described above) for long-term cultures. Long-term cultures were set up with two unrelated normal bone marrow samples (NBM1 and NBM2). Half of the non-adherent mononuclear cells were removed weekly from the stromal co-cultures and plated for colony-forming cells (CFU-GM) in the CFU-GEMM assay.

transformed cell = experiment: Transformed cell growth; type: cell-based
[7] = test system: cells of the myeloid lineage; experiment: Promotion of myelopoiesis (general statement); settings: in vitro, ex vivo and in vivo

N#C/C(=C\C=C\c1ccc(O)c(O)c1)C(=O)NCc1ccccc1 [CR4, (E,E)-2-(Benzylaminocarbonyl)-3-(3,4-dihydroxystyryl)acrylonitrile]
CFU-C colony formation (normal bone marrow cells [1]; 10 μM, 14 days): significantly stimulated; also recorded: significantly increased
BFU-E colony formation (normal bone marrow cells [1]; 10 μM, 14 days, FIG. 1): some inhibition
CFU-C colony formation (normal bone marrow cells [1]; 20 μM, 14 days): equivalent to the control
toxicity to normal bone marrow cells (normal bone marrow cells [1]; 14 days): minimal toxicity
CFU-C colony numbers (normal bone marrow cells [1]; concentrations from about 0.6 to 10 μM, 14 days, FIG. 1): stimulated
toxicity upon normal bone marrow (normal bone marrow cells [1]; doses up to 5 μM, 14 days, FIG. 1): negligible toxicity
number of CFU-GM or CFU-C colonies (normal bone marrow cells [1]): effective in increasing
formation of CFU-C colonies from CD34+ stem cells ([2]; concentrations from 2.5-7.5 μM, 14 days, FIG. 2): significantly increased
myeloproliferation with purified CD34+ and hematopoietic stem cells ([2]; short-term CFU-GEMM assay, FIG. 12): can be induced
CFU-C colony formation (normal bone marrow cells [3]; 5 μM (so in the source), five hours exposure, FIG. 6): increased significantly
CFU-C colony formation (normal bone marrow cells [3]; 5 μM (so in the source), two and a half hours exposure, FIG. 6): increased significantly
CFU-C colony formation (normal bone marrow cells [3]; 25 μM, five hours exposure, bone marrow sample A, FIG. 7A): increased significantly
CFU-C colony formation (normal bone marrow cells [3]; 50 μM, five hours exposure, bone marrow sample A, FIG. 7A): increased significantly
CFU-C colony formation (normal bone marrow cells [3]; 50 μM, five hours exposure, other bone marrow sample, FIG. 7B): increased significantly
CFU-C colony formation (normal bone marrow cells [3]; 50 μM, two and a half hours exposure, FIG. 5): increased significantly
myelopoiesis when the cells are cultured (normal bone marrow cells [3]; 25-50 μM for 2-5 hours): increased myelopoiesis
other normal bone marrow cells (normal bone marrow cells [3]; same doses (25-50 μM) over the same period (2-5 hours)): relatively unaffected
white blood cells in the peripheral blood (mice [4]): Increased numbers
normal splenic granulocytes (mice [5]): tremendous increase
non-specific damage to the animal (mice [5]): did not result in detectable non-specific damage
granulocytes in the spleen (mice [5]; mice, one month, subcutaneous osmotic pump, theoretical 200 μg/kg/hr, FIG. 10): Increase in granulocytes
number of CFU-GM in long-term cultures ([6]; 50 μM for 5 hours): significant increase
myeloproliferation in long-term cultures ([6]; NBM1): significant increase
myeloproliferation in long-term cultures ([6]; NBM2): significant increase
transformed cell growth (transformed cell): do not promote
promoting myelopoiesis [7]: capable of promoting myelopoiesis

COc1cc(/C=C/C=C(C#N)C#N)cc(OC)c1O [CR7, (E,E)-2-cyano-3-(3,5-dimethoxy-4-hydroxystyryl)acrylonitrile]
promoting myelopoiesis [7]: capable of promoting myelopoiesis

COc1cc(/C=C/C=C(\C#N)C(=O)NCCc2ccccc2)cc(OC)c1O [CR8, (E,E)-2-(Phenylethylamido)-3-(3,5-dimethoxy-4-hydroxystyryl)acrylonitrile]
promoting myelopoiesis [7]: capable of promoting myelopoiesis

COc1cc(/C=C/C=C(\C#N)C(=O)NCc2ccc(O)c(O)c2)cc(OC)c1O [CR11, (E,E)-2-(3,4-Dihydroxybenzylaminocarbonyl)-3-(3,5-dimethoxy-4-hydroxystyryl)acrylonitrile]
CFU-C colony formation (normal bone marrow cells [1]; 10 μM, 14 days): elevated colony numbers slightly
CFU-C colony formation (normal bone marrow cells [1]; 20 μM, 14 days): significantly increased
toxicity to normal bone marrow cells (normal bone marrow cells [1]; 14 days): minimal toxicity
number of CFU-GM or CFU-C colonies (normal bone marrow cells [1]): effective in increasing
white blood cells in the peripheral blood (mice [4]): Increased numbers
white blood cell counts (mice [4]): significantly increased
normal splenic granulocytes (mice [5]): tremendous increase
non-specific damage to the animal (mice [5]): did not result in detectable non-specific damage
transformed cell growth (transformed cell): do not promote
promoting myelopoiesis [7]: capable of promoting myelopoiesis

N#C/C(=C\C=C\c1ccccc1)C(=O)NCc1ccc(O)c(O)c1 [CR19, (E,E)-2-(3,4 Dihydroxybenzylaminocarbonyl)-3-styrylacrylonitrile]
CFU-C colony formation (normal bone marrow cells [1]; 2.5 μM, 14 days, FIG. 8): significantly increased
number of CFU-GM or CFU-C colonies (normal bone marrow cells [1]): effective in increasing
transformed cell growth (transformed cell): do not promote
promoting myelopoiesis [7]: capable of promoting myelopoiesis

COc1cc(/C=C/C=C(\C#N)C(=O)NCc2ccccc2)ccc1O [CR56, (E,E)-2-(benzylaminocarbonyl)-3-(3-methoxy-4-hydroxystyryl)acrylonitrile]
promoting myelopoiesis [7]: capable of promoting myelopoiesis

B1: G-CSF: recombinant human G-CSF (Granulocyte-Colony Stimulating Factor), injected as positive control (protein, UniProt P09919 31-207, looked up)
Granulocyte …: TPLGPASSLPQSFLLKCLEQVRKIQGDGAALQEKLVSECATYKLCHPEELVLLGHSLGIPWAPLSSCPSQALQLAGCLSQLHSGLFLYQGLLQALEGISPELGPTLDTLQLDVADFATTIWQQMEELGMAPALQPTQGAMPAFASAFQRRAGGVLVASHLQSFLEVSYRVLRHLAQP
white blood cell counts (mice [4]): significantly increased
